Laboratory results reported in patent US9999596B2 (priority 2004, dated 2018).
Like-named read-outs stand apart in the source and are kept apart here.

Experiments:
[1] = tested on: human umbilical venular endothelial cells; conditions: cited from earlier work
[2] = tested on: A2780 (sensitive) human ovarian carcinoma cells; assay: cells; assay type: cell-based; conditions: A2780, 48 h, read-out: IC50 (nM) A2780
[3] = tested on: A2780/AD (multidrug resistant) human ovarian carcinoma cells; assay: cells; assay type: cell-based; conditions: A2780AD, 48 h, read-out: IC50 (nM) A2780/AD
[4] = female, Fischer 344, rat, in vivo
in vivo = conditions: female, Fischer 344, rat
Mat B-III tumors = assay: Pharmacodynamic tumor-growth delay study
From the text: Mat B-III cells were obtained from American Type Culture Collection (Rockville, Md.). The cells were maintained in culture in vitro in RMPI medium supplemented with 10% fetal bovine serum, 100 units/ml penicillin-streptomycin sulfate, 2% sodium bicarbonate and 1% non-essential amino acids.
Female Fischer 344 rats (160-180 g) were purchased from Hilltop Laboratories (Scottdale, Pa.) and allowed to acclimate for one week. The rats were housed, two per cage and tagged to facilitate identification. Mat B-III cells grown in serum-containing medium were washed with phosphate buffer and trypsinized for 5 minutes. The cells were collected and centrifuged for 5 minutes. The cell pellet was resuspended in Dulbecco's phosphate buffer (DPBS) and centrifuged as above. This process was repeated three times. Finally the cell pellet (2×10^6 cells/ml) was resuspended and the cells were injected (0.5 ml=1×10^6 cells) subcutaneously into the back of the rats. The rats were weighed daily and examined for tumor development and distress. The tumor size was measured in two dimensions using calipers and the tumor mass was calculated as described in Equation 4.5.
Once the tumors reached a size of approximately 1 cm^3, (500-1000 mg) the rats were randomized into five experimental groups. […] All treatments were administered s.c. in the vicinity of the tumor. The rats were monitored daily for weight loss, tumor growth, skin lesions, distress or ascites. Body weight loss and lethal toxicity were taken into account when evaluating the toxic effects induced by the drug treatment. […]
Therefore, to adequately compare the various treatments, the rats were divided into two groups of 16 rats each based on the size of the tumors on day 10 following inoculation (small tumor group: size ˜500 mg and large tumor group: size ˜1000 mg). […] The dimensions of the tumors were measured prior to and post administration of the treatments in the case of the hydrogel groups to account for the volume of hydrogel.

SMILES: CC[C@@]1(O)C(=O)OCc2c1cc1n(c2=O)Cc2cc3ccccc3nc2-1 [CPT, Camptothecin]
- growth of human umbilical venular endothelial cells in vitro [1]: inhibited the growth

SMILES: CC[C@@]1(O)C(=O)OCc2c1cc1n(c2=O)Cc2cc3c(CN(C)C)c(O)ccc3nc2-1 [TPT, 9-amino-dimethyl-10-hydroxycamptothecin]
- IC50 [2]: 25.3 ± 1.4 nM
- IC50 [3]: 55.9 ± 2.67 nM
- MAT (mean absorption time) ([4]; 10 mg/kg): 10.44 h
- Alpha ([4]; iv, 10 mg/kg): 0.84 h⁻¹
- Cl ([4]; iv, 10 mg/kg): 444.59 mL/h
- MRT ([4]; iv, 10 mg/kg): 3.92 h
- Vz/F ([4]; iv, 10 mg/kg): 3552.68 mL
- kel ([4]; iv, 10 mg/kg): 0.14 h⁻¹
- dose fraction (F) that appeared in the systemic circulation ([4]; sc): 92%
- Vz ([4]; sc, 10 mg/kg): 5483.75 mL
- kel ([4]; sc, 10 mg/kg): 0.10 h⁻¹
- tmax ([4]; sc, 10 mg/kg): 1.56 h
- growth of human umbilical venular endothelial cells in vitro [1]: inhibited the growth
- AUC(0-inf) (in vivo; iv, 10 mg/kg): 5910 ng·h/mL
- AUC(0-t) (in vivo; iv, 10 mg/kg): 5790 ng·h/mL
- bioavailability (in vivo; iv, 10 mg/kg): 100%
- AUC (in vivo; iv, 10 mg/kg): 5960 ng·h/mL
- half-life (in vivo; iv, 10 mg/kg, Alpha-t1/2): 0.84 ± 0.07 h
- clearance (in vivo; iv, 10 mg/kg, Cl): 7.55 mL/min
- Cmax (in vivo; iv, 10 mg/kg): 4360 ng/mL
- MRT (in vivo; iv, 10 mg/kg): 2.95 h
- Vd (in vivo; iv, 10 mg/kg, Vss): 1.32 L
- Vd (in vivo; iv, 10 mg/kg, Vz): 3.55 L
- half-life (in vivo; iv, 10 mg/kg, t1/2): 6.16 ± 0.56 h
- bioavailability (in vivo; sc): 98.8%
- AUC(0-inf) (in vivo; sc, 10 mg/kg): 5380 ng·h/mL
- AUC(0-t) (in vivo; sc, 10 mg/kg): 4470 ng·h/mL
- bioavailability (in vivo; sc, 10 mg/kg): 91.8%
- AUC (in vivo; sc, 10 mg/kg): 5800 ± 894 ng·h/mL
- Cmax (in vivo; sc, 10 mg/kg): 468 ± 177 ng/mL
- half-life (in vivo; sc, 10 mg/kg, Ka-t1/2): 0.32 ± 0.05 h
- MRT (in vivo; sc, 10 mg/kg): 13.4 h
- Vd/F (in vivo; sc, 10 mg/kg, Vss/F): 6.07 L
- Vd/F (in vivo; sc, 10 mg/kg, Vz/F): 5.97 L
- half-life (in vivo; sc, 10 mg/kg, t1/2): 6.42 ± 1.99 h
- tmax (in vivo; sc, 10 mg/kg, tmax): 2.67 h
- effect on tumor size, small tumor group (Mat B-III tumors; 5 mg/kg s.c., tumors ~500 mg, 16 days): very effective initially in reducing tumor size
- effect on tumor size, large tumor group (Mat B-III tumors; 5 mg/kg s.c., tumors ~1000 mg): initially effective
- appearance of resected tumors (Mat B-III tumors; at completion of study): highly vascularized and firm
